US10196390B2, “TYK2 inhibitors and uses thereof” (Nimbus Lakshmi, Inc., priority 2014, dated 2019)

Molecular target: TYK2 (Homo sapiens (Human), UniProt P29597)
Test: Tyk2 activity inhibition assay (radioactive kinase assay / Caliper assay)
Type: biochemical
Conditions: not given
Protocol: Peptide substrate, [[…]], (20 μM) is prepared in reaction buffer (20 mM Hepes pH 7.5, 10 mM MgCl2, 1 mM EGTA, 0.02% Brij35, 0.02 mg/mL BSA, […], 2 mM DTT, 1% DMSO. TYK2 (Invitrogen) kinase is added, followed by compounds in DMSO. 33PATP is added to initiate the reaction in ATP at 10 μM. Kinase reaction is incubated for 120 min at room temp and reactions are spotted onto P81 ion exchange paper (Whatman #3698-915), and then washed extensively in 0.75% phosphoric acid, prior to reading the radioactivity counts. For JAK2 (Invitrogen) kinase assay the peptide substrate poly[Glu:Tyr](4:1), 0.2 mg/ml is used, in the reaction carried out the same as for TYK2.
(§1) The caliper machine employs an off chip mobility shift assay to detect phosphorylated peptide substrates from kinase assays, using microfluidics technology. The assays are carried out at ATP concentration equivalent to the ATP Km, and at 1 mM ATP. Compounds are serially diluted in DMSO then further diluted in assay buffer (25 mM HEPES, pH 7.5, 0.01% Brij-35, 0.01% Triton, 0.5 mM EGTA). 5 ul of diluted compound was added into wells first, then 10 ul of enzyme mix was added into wells, followed by 10 uL of substrate mix (peptide and ATP in 10 mM MgCl2) to start reaction. Reaction was incubated at 28° C. for 25 min and then added 25 ul stop buffer (100 mM HEPES, 0.015% Brij-35, 50 mM EDTA), followed by reading with Caliper. JAK2 at 1 nM final concentration and TYK2 at 9.75 nM are from Carna, and substrates used are ATP at 20 and 16 uM, respectively. JAK2 assay uses peptide 22 and TYK2 uses peptide 30 (Caliper), each at 3 uM.

Chain of TYK2 (P29597 whole entry): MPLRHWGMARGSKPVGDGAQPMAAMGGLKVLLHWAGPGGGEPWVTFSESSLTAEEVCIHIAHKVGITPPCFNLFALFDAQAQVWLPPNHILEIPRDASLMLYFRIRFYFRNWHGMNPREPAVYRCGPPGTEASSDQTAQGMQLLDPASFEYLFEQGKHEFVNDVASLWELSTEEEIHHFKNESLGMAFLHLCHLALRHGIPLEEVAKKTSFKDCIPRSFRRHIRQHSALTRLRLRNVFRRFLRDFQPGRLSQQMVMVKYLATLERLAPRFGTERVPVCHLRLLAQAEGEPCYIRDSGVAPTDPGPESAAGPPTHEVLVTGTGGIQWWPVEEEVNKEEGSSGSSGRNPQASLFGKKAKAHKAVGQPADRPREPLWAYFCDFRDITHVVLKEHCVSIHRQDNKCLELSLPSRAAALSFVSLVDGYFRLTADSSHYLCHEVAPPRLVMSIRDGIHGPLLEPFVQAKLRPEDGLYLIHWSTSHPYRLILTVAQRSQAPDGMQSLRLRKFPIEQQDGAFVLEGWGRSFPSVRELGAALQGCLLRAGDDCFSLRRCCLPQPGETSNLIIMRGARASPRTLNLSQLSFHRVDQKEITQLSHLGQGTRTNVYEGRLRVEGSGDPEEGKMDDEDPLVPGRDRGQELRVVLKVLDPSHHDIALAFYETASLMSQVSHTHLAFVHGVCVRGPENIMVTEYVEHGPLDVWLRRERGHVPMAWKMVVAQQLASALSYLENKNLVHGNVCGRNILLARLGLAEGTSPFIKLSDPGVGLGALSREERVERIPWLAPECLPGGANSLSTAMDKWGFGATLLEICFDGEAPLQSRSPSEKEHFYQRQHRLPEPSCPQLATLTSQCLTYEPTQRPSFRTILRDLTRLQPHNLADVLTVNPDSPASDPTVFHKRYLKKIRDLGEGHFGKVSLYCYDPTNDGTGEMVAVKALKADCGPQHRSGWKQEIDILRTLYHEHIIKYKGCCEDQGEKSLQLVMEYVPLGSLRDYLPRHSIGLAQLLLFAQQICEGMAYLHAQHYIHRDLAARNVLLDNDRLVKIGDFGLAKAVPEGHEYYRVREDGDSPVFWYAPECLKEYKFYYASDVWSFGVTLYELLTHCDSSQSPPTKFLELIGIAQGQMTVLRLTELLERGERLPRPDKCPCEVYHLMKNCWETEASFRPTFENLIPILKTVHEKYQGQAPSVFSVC

**Q.** Which Ki does the source give for `O=C1NCc2nc(-c3c(F)cccc3F)nc(Nc3ccc(OC(F)(F)F)cc3)c21` [Compound I-184, 2-(2,6-difluorophenyl)-4-((4-(trifluoro-methoxy)phenyl)amino)-6,7-dihydro-5H-pyrrolo[3,4-d]pyrimidin-5-one] here?
**A.** 10 to 100 nM

Molecular target: JAK2 (Homo sapiens (Human), UniProt O60674)
Test: JAK2 activity inhibition assay (radioactive kinase assay / Caliper assay)
Type: biochemical
Conditions: read-out: JAK2 Ki
Protocol: as §1, with “The assays are carried out at ATP concentration equivalent to the ATP Km, and at 1 mM ATP.” left out, “Caliper.” for “Caliper. JAK2 at 1 nM final concentration and TYK2 at 9.75 nM are from Carna, and substrates used are ATP at 20 and 16 uM, respectively. JAK2 assay uses peptide 22 and TYK2 uses peptide 30 (Caliper), each at 3 uM.”

Chain of JAK2 (O60674 whole entry): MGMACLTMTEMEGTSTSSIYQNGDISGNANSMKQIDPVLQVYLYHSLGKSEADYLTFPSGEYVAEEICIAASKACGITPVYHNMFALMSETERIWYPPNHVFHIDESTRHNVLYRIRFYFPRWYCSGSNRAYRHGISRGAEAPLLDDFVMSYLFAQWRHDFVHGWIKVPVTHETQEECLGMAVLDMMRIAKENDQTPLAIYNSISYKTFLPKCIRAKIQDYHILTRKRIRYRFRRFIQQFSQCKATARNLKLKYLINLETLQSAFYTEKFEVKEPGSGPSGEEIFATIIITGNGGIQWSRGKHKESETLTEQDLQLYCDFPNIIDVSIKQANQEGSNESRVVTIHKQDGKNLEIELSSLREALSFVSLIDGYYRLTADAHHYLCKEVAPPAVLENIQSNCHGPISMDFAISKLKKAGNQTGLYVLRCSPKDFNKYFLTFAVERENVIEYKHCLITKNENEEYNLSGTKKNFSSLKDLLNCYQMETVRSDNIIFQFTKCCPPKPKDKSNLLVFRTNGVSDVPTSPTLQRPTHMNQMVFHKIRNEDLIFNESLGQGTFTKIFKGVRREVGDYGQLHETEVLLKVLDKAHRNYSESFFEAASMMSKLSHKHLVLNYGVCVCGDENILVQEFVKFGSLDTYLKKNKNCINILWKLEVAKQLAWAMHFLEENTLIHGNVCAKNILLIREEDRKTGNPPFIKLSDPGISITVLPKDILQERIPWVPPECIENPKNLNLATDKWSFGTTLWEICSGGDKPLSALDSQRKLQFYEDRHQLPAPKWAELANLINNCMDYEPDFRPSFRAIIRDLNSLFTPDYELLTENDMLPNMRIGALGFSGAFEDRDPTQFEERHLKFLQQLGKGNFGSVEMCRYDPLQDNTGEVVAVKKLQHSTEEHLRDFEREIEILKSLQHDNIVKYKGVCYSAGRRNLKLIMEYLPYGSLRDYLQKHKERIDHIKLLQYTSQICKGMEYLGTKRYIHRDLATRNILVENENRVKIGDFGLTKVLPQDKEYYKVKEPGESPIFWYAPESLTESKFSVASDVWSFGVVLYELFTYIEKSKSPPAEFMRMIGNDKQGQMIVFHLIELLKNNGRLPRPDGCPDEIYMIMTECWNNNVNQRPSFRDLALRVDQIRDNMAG

**Q.** `COc1ccc(Nc2cc(-c3c(F)cccc3F)nc3c2C(=O)NC3C)nc1` (stereo not drawn) [Compound I-239, 2-(2,6-difluorophenyl)-4-((5-methoxypyridin-2-yl)amino)-7-methyl-6,7-dihydro-5H-pyrrolo[3,4-b]pyridin-5-one] was tested. Which Ki did it give?
**A.** 100 to 1000 nM

**Q.** Which Ki does the source give for `O=C1NCc2nc(-c3c(F)cccc3F)cc(Nc3ccc(N4CCCC(O)C4)cn3)c21` (stereo not drawn) [Compound I-269, 2-(2,6-difluorophenyl)-4-((5-(3-hydroxypiperidin-1-yl)pyridin-2-yl)amino)-6,7-dihydro-5H-pyrrolo[3,4-b]pyridin-5-one] here?
**A.** 10 to 100 nM

**Q.** For `CC1(C)CN(c2ccc(Nc3cc(-c4c(F)cccc4F)nc4c3C(=O)NC4)nc2)CC[C@@H]1O` [Compound I-267, (S)-2-(2,6-difluorophenyl)-4-((5-(4-hydroxy-3,3-dimethylpiperidin-1-yl)pyridin-2-yl)amino)-6,7-dihydro-5H-pyrrolo[3,4-b]pyridin-5-one], which Ki is on record?
**A.** 10 to 100 nM

**Q.** With `COCCNC(=O)c1ccc(Nc2cc(-c3c(F)cccc3F)nc3c2C(=O)NC3)nc1` [Compound I-141, 6-((2-(2,6-difluorophenyl)-5-oxo-6,7-dihydro-5H-pyrrolo[3,4-b]pyridin-4-yl)amino)-N-(2-methoxyethyl)nicotinamide] as the compound, how does the Ki read?
**A.** 10 to 100 nM

**Q.** How did the Ki turn out when `O=C(Cc1ccc(Nc2nc(-c3c(F)cccc3F)nc3c2C(=O)NC3)cc1)NC1CNC1` [Compound I-12, N-(azetidin-3-yl)-2-(4-((2-(2,6-difluorophenyl)-5-oxo-6,7-dihydro-5H-pyrrolo[3,4-d]pyrimidin-4-yl)amino)phenyl)acetamide] was run?
**A.** 100 to 1000 nM

**Q.** How did the Ki turn out when `CC1(C)CCCC(=O)N1c1ccc(Nc2cc(-c3c(F)cccc3F)nc3c2C(=O)NC3)nc1` [Compound I-284, 2-(2,6-difluorophenyl)-4-((5-(2,2-dimethyl-6-oxopiperidin-1-yl)pyridin-2-yl)amino)-6,7-dihydro-5H-pyrrolo[3,4-b]pyridin-5-one] was run?
**A.** 10 to 100 nM

**Q.** Which Ki does the source give for `CCNC(=O)c1ccc(Nc2cc(-c3c(F)cccc3Cl)nc3c2C(=O)NC3)nc1` [Compound I-146, 6-((2-(2-chloro-6-fluorophenyl)-5-oxo-6,7-dihydro-5H-pyrrolo[3,4-b]pyridin-4-yl)amino)-N-ethylnicotinamide] here?
**A.** 10 to 100 nM

**Q.** With `CN1CCN(C)C(C)(c2ccc(Nc3nc(-c4c(F)cccc4F)nc4c3C(=O)NC4)cc2)C1=O` (stereo not drawn) [Compound I-209, 2-(2,6-difluorophenyl)-4-((4-(1,2,4-trimethyl-3-oxopiperazin-2-yl)phenyl)amino)-6,7-dihydro-5H-pyrrolo[3,4-d]pyrimidin-5-one] as the compound, how does the Ki read?
**A.** 10 to 100 nM

**Q.** Which Ki does the source give for `CC1(C)CCN(c2ccc(Nc3cc(-c4c(F)cccc4F)nc4c3C(=O)NC4)nc2)CC1` [Compound I-252, 2-(2,6-difluorophenyl)-4-((5-(4,4-dimethylpiperidin-1-yl)pyridin-2-yl)amino)-6,7-dihydro-5H-pyrrolo[3,4-b]pyridin-5-one] here?
**A.** 100 to 1000 nM

**Q.** Which Ki does the source give for `CC1(c2ccc(Nc3nc(-c4c(F)cccc4F)nc4c3C(=O)NC4)cc2)COC1` [Compound I-255, 2-(2,6-difluorophenyl)-4-((4-(3-methyloxetan-3-yl)phenyl)-amino)-6,7-dihydro-5H-pyrrolo[3,4-d]pyrimidin-5-one] here?
**A.** 10 to 100 nM

**Q.** How did the Ki turn out when `CC1(O)CCN(C(=O)c2ccc(Nc3cc(-c4c(F)cccc4F)nc4c3C(=O)NC4)cc2)CC1` [Compound I-275, 2-(2,6-difluorophenyl)-4-((4-(4-hydroxy-4-methylpiperidine-1-carbonyl)phenyl)amino)-6,7-dihydro-5H-pyrrolo[3,4-b]pyridin-5-one] was run?
**A.** 10 to 100 nM

**Q.** Which Ki does the source give for `O=C1NCc2nc(-c3c(F)cccc3F)cc(Nc3ccc(N4C5COCC4C5)cn3)c21` [Compound I-279, 4-((5-(3-oxa-6-azabicyclo[3.1.1]heptan-6-yl)pyridin-2-yl)amino)-2-(2,6-difluorophenyl)-6,7-dihydro-5H-pyrrolo[3,4-b]pyridin-5-one] here?
**A.** 10 to 100 nM

**Q.** For `O=C1NCc2nc(-c3c(F)cccc3F)cc(Nc3ccc(F)cc3)c21` [Compound I-235, 2-(2,6-difluorophenyl)-4-((4-fluorophenyl)amino)-6,7-dihydro-5H-pyrrolo[3,4-b]pyridin-5-one], which Ki is on record?
**A.** 100 to 1000 nM

**Q.** `O=C1NCc2nc(-c3c(F)cccc3F)cc(Nc3ccc(C(=O)N4CCOCC4)cn3)c21` [Compound I-212, 2-(2,6-difluorophenyl)-4-((5-(morpholine-4-carbonyl)pyridin-2-yl)amino)-6,7-dihydro-5H-pyrrolo[3,4-b]pyridin-5-one] was tested. Which Ki did it give?
**A.** 10 to 100 nM

**Q.** For `COC(=O)C(C)c1ccc(Nc2nc(-c3c(F)cccc3F)nc3c2C(=O)NC3)cc1` (stereo not drawn) [Compound I-188, methyl 2-(4-((2-(2,6-difluorophenyl)-5-oxo-6,7-dihydro-5H-pyrrolo[3,4-d]pyrimidin-4-yl)amino)phenyl)propanoate], which Ki is on record?
**A.** 10 to 100 nM

**Q.** `CCNC(=O)c1cnc(Nc2cc(-c3c(F)cccc3F)nc3c2C(=O)NC3)cc1F` [Compound I-286, 6-((2-(2,6-difluorophenyl)-5-oxo-6,7-dihydro-5H-pyrrolo[3,4-b]pyridin-4-yl)amino)-N-ethyl-4-fluoronicotinamide] was tested. Which Ki did it give?
**A.** 100 to 1000 nM

**Q.** Which Ki does the source give for `O=C1NCc2nc(-c3c(F)cccc3F)cc(Nc3ccc(C4=CCOCC4)cn3)c21` [Compound I-249, 2-(2,6-difluorophenyl)-4-((5-(3,6-dihydro-2H-pyran-4-yl)pyridin-2-yl)amino)-6,7-dihydro-5H-pyrrolo[3,4-b]pyridin-5-one] here?
**A.** 10 to 100 nM

**Q.** With `O=C1NCc2nc(-c3c(F)cccc3F)c(F)c(Nc3ccc(N4CCOCC4)cn3)c21` [Compound I-254, 2-(2,6-difluorophenyl)-3-fluoro-4-((5-morpholinopyridin-2-yl)amino)-6,7-dihydro-5H-pyrrolo[3,4-b]pyridin-5-one] as the compound, how does the Ki read?
**A.** 10 to 100 nM

**Q.** Which Ki does the source give for `C[C@@H](C(=O)O)c1ccc(Nc2nc(-c3c(F)cccc3F)nc3c2C(=O)NC3)cc1` [Compound I-190, (R)-2-(4-((2-(2,6-difluorophenyl)-5-oxo-6,7-dihydro-5H-pyrrolo-[3,4-d]pyrimidin-4-yl)amino)phenyl)propanoic Acid] here?
**A.** 100 to 1000 nM

**Q.** How did the Ki turn out when `CC1COCCN1c1ccc(Nc2cc(-c3c(F)cccc3F)nc3c2C(=O)NC3)nc1` (stereo not drawn) [Compound I-244, 2-(2,6-difluorophenyl)-4-((5-(3-methylmorpholino)pyridin-2-yl)amino)-6,7-dihydro-5H-pyrrolo[3,4-b]pyridin-5-one] was run?
**A.** 10 to 100 nM

**Q.** With `CC[C@]1(c2ccc(Nc3nc(-c4c(F)cccc4F)nc4c3C(=O)NC4)cc2)CCNC1=O` [Compound I-177, (R)-2-(2,6-difluorophenyl)-4-((4-(3-ethyl-2-oxopyrrolidin-3-yl)phenyl)amino)-6,7-dihydro-5H-pyrrolo[3,4-d]pyrimidin-5-one] as the compound, how does the Ki read?
**A.** 10 to 100 nM

**Q.** For `CCC1(c2ccc(Nc3nc(-c4c(F)cccc4F)nc4c3C(=O)NC4)cc2)CCNC1=O` (stereo not drawn) [Compound I-175, 2-(2,6-difluorophenyl)-4-((4-(3-ethyl-2-oxopyrrolidin-3-yl)phenyl)amino)-6,7-dihydro-5H-pyrrolo[3,4-d]pyrimidin-5-one], which Ki is on record?
**A.** 10 to 100 nM

**Q.** `C[C@@H]1CCC[C@H](C)N1c1ccc(Nc2cc(-c3c(F)cccc3F)nc3c2C(=O)NC3)nc1` [Compound I-261, 2-(2,6-difluorophenyl)-4-((5-((2R,6S)-2,6-dimethylpiperidin-1-yl)pyridin-2-yl)amino)-6,7-dihydro-5H-pyrrolo[3,4-b]pyridin-5-one] was tested. Which Ki did it give?
**A.** 10 to 100 nM

**Q.** Which Ki does the source give for `O=C1NCc2nc(-c3c(F)cccc3F)cc(Nc3ccc(C4(O)CCOCC4)cn3)c21` [Compound I-251, 2-(2,6-difluorophenyl)-4-((5-(4-hydroxytetrahydro-2H-pyran-4-yl)pyridin-2-yl)amino)-6,7-dihydro-5H-pyrrolo[3,4-b]pyridin-5-one] here?
**A.** 10 to 100 nM

**Q.** With `CN1CCN(C)[C@](C)(c2ccc(Nc3nc(-c4c(F)cccc4F)nc4c3C(=O)NC4)cc2)C1=O` [Compound I-210, (R)-2-(2,6-difluorophenyl)-4-((4-(1,2,4-trimethyl-3-oxopiperazin-2-yl)phenyl)amino)-6,7-dihydro-5H-pyrrolo[3,4-d]pyrimidin-5-one] as the compound, how does the Ki read?
**A.** 10 to 100 nM

**Q.** Which Ki does the source give for `C[C@H](C(=O)O)c1ccc(Nc2nc(-c3c(F)cccc3F)nc3c2C(=O)NC3)cc1` [Compound I-191, (S)-2-(4-((2-(2,6-difluorophenyl)-5-oxo-6,7-dihydro-5H-pyrrolo-[3,4-d]pyrimidin-4-yl)amino)phenyl)propanoic Acid] here?
**A.** 100 to 1000 nM
